{"source": "patent US8592581B2", "about": "“Trisubstituted purine derivatives” (Cyclacel Limited, priority 2007, dated 2013)", "key": {"H292": {"test_system": "H292", "assay": "Alamar blue cytotoxicity assay H292", "format": "cell-based", "conditions": "Homo sapiens, NCI-H292; 72 hours; read-out: cellular cytotoxicity IC50 H292", "protocol": "(§1) In order to determine the cellular potency of the compounds, the cytotoxicity of each compound was determined against a range of cell lines. Standard cytotoxicity methods were performed as follows: cells were seeded in 96-well plates appropriately for their doubling time (2-5000 cells per well) in RPMI or DMEM media containing 10% FCS and incubated overnight at 37° C., 5% CO2. The media was removed and 100 μl fresh media containing increasing concentrations of appropriate compound was added and the cells incubated for 72 hours at 37° C., 5% CO2. A 10% stock of alamar blue (Roche, Lewes, United Kingdom) was prepared in medium and 100 μl added to the cells which were incubated for 2 hours. Absorbance was measured on the Wallac Victor 2 1420 multi-label counter at 544-595 nm."}, "CYP2C19": {"molecular_target": "CYP2C19 (Homo sapiens (Human), UniProt P33261)", "sequence (P33261 whole entry)": "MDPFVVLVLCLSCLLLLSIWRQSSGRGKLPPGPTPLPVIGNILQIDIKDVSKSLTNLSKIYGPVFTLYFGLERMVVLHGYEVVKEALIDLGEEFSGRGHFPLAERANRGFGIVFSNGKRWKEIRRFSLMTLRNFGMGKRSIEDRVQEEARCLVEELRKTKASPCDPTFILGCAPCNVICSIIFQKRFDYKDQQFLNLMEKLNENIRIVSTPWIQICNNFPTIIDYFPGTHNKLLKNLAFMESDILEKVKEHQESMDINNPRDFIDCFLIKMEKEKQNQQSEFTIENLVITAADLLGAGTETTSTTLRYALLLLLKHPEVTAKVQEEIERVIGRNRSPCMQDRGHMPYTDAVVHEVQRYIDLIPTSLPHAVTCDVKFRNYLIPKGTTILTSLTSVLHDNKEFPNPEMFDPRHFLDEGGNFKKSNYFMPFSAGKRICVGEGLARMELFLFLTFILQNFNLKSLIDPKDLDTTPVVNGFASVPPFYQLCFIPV", "assay": "CYP2C19 inhibition, human liver microsomes, mephenyloin", "format": "in vitro ADME", "protocol": "(§2) Six test compound concentrations (0.05, 0.25, 0.5, 2.5, 5, 25 μM in DMSO; final DMSO concentration=0.25%) were incubated with human liver microsomes (0.5 mg/mL) and NADPH (1 mM) in the presence of the probe substrate mephenyloin (25 μM) for 60 min at 37° C. The selective CYP2C19 inhibitor, tranylcypromine, was screened alongside the test compounds as a positive control.\n(§3) For the CYP1A incubations, the reactions were terminated by the addition of methanol, and the formation of the metabolite, resorufin, was monitored by fluorescence (excitation wavelength=535 nm, emission wavelength=595 nm). For the CYP2C9, CYP2C19, CYP2D6, and CYP3A4 incubations, the reactions were terminated by the addition of methanol containing internal standard. The samples were then centrifuged, and the supernatants were combined, for the simultaneous analysis of 4-hydroxytolbutamide, 4-hydroxymephenyloin, dextrorphan, and 1-hydroxymidazolam plus internal standard by LC-MS/MS using generic LC-MS/MS conditions. Formic acid in deionised water (final concentration=0.1%) was added to the final sample prior to analysis."}, "CYP2C9": {"molecular_target": "CYP2C9 (Homo sapiens (Human), UniProt P11712)", "sequence (P11712 whole entry)": "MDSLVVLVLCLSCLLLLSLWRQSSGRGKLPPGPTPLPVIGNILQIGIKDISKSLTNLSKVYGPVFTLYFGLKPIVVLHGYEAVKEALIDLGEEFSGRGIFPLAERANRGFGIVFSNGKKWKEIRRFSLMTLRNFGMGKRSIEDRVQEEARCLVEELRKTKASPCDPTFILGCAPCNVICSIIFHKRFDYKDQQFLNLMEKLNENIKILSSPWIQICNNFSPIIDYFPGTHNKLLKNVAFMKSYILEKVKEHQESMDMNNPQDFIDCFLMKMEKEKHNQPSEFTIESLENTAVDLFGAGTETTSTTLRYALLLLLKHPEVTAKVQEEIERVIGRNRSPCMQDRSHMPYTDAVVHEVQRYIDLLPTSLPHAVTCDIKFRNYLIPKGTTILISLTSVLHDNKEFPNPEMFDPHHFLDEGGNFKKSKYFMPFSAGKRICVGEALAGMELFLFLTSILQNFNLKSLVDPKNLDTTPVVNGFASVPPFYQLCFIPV", "assay": "CYP2C9 inhibition, human liver microsomes, tolbutamide", "format": "in vitro ADME", "protocol": "as §2, with “(1” for “(0.5”, “tolbutamide (120” for “mephenyloin (25”, “CYP2C9” for “CYP2C19”, “sulphaphenazole,” for “tranylcypromine,”\nas §3"}, "MDA-MB-436": {"test_system": "MDA-MB-436", "assay": "Alamar blue cytotoxicity assay MDA-MB-436", "format": "cell-based", "conditions": "Homo sapiens, 72 hours, read-out: cellular cytotoxicity IC50 MDA-MB-436", "protocol": "as §1"}, "H1650": {"test_system": "H1650", "assay": "Alamar blue cytotoxicity assay H1650", "format": "cell-based", "conditions": "Homo sapiens, NCI-H1650; 72 hours; read-out: cellular cytotoxicity IC50 H1650", "protocol": "as §1"}, "NCI-H460": {"test_system": "NCI-H460", "assay": "Alamar blue cytotoxicity assay NCI-H460", "format": "cell-based", "conditions": "Homo sapiens, 72 hours, read-out: cellular cytotoxicity IC50 NCI-H460", "protocol": "as §1"}, "MESSA-Dx5": {"test_system": "MESSA-Dx5", "assay": "Alamar blue cytotoxicity assay MESSA-Dx5", "format": "cell-based", "conditions": "Homo sapiens, MES-SA/Dx5; 72 hours; read-out: cellular cytotoxicity IC50 MESSA-Dx5", "protocol": "as §1"}, "[1]": {"test_system": "H460 non-small cell lung cancer (NSCLC) cell line", "assay": "Alamar blue cytotoxicity assay in H460 NSCLC tumour cell line", "format": "cell-based", "conditions": "H460 cells, 72 hours, average of three independent experiments", "protocol": "as §1, with “the H460 non-small” for “a range of”, “lung cancer (NSCLC) cell line.” for “lines.”, “follows: H460” for “follows:”, “(3000” for “(2-5000”, “RPMI” for “RPMI or DMEM”, “hours.” for “hours. Absorbance was measured on the Wallac Victor 2 1420 multi-label counter at 544-595 nm.”"}}, "data": [{"smiles": "CC[C@H](Nc1nc(NCc2cnc(C)cc2C)c2ncn(C(C)C)c2n1)[C@@H](C)O", "note": "[Compound [1]]", "values": [{"measurement": "IC50", "setting": "H292", "value": 370, "unit": "nM"}, {"measurement": "IC50", "setting": "CYP2C19", "value": "> 25", "unit": "µM"}, {"measurement": "IC50", "setting": "CYP2C9", "value": 23.8, "unit": "µM"}, {"measurement": "IC50", "setting": "MDA-MB-436", "value": 440, "unit": "nM"}, {"measurement": "IC50", "setting": "H1650", "value": 460, "unit": "nM"}, {"measurement": "IC50", "setting": "NCI-H460", "value": 500, "unit": "nM"}, {"measurement": "IC50", "setting": "MESSA-Dx5", "value": 1210, "unit": "nM"}, {"measurement": "IC50", "setting": "[1]", "value": 500, "unit": "nM"}, {"measurement": "IC50", "setting": "[1]; Homo sapiens, NCI-H460, 72 h", "value": "< 1000", "unit": "nM"}]}]}
